Where two headings read alike, the source gives them in different places.
Assays:
[1] = system: human renal cancer Caki-1 cells; experiment: Antitumor effect of Flt-3 inhibitor and sunitinib in mouse models transplanted with Caki-1 cells; conditions: day 18; BALB/cAJcl-nu mice, s.c. Caki-1 tumor pieces; Compound 9 50 mg/kg oral twice a day days 0-4; sunitinib 40 mg/kg oral twice a day x 5 days (alone days 0-4, combined days 7-11)
[2] = system: human colon cancer Colo205 cells; experiment: Antitumor effect of Flt-3 inhibitor and 5-fluorouracil (5-FU) in mouse models transplanted with Colo205 cells; format: in vivo; conditions: day 7; BALB/cAJcl-nu mice, s.c. Colo205; Compound 9 20 mg/kg oral twice a day x 5 days; 5-FU 10 mg/kg i.v. once a day x 5 days
[3] = system: human acute myeloid leukemia HL-60 cells; experiment: Antitumor effect of Flt-3 inhibitor and daunorubicin in mouse models transplanted with HL-60 cells; format: in vivo; conditions: day 17; scid mice, s.c. HL-60; Compound 9 20 mg/kg oral twice a day x 14 days; daunorubicin 2.5 mg/kg i.v. once a day x 3 days
Experimental: B. Compound 9 alone group: 20 mg/kg (twice a day×14 days)
C. Daunorubicin alone group: 2.5 mg/kg (once a day×3 days)
D. Compound 9+daunorubicin: 20 mg/kg (twice a day×14 days) for Compound 9, and 2.5 mg/kg (once a day×3 days) for daunorubicin

[4] = system: human acute myeloid leukemia MOLM-13 cells; experiment: Antitumor effect of Flt-3 inhibitor and Hsp90 inhibitor in mouse models transplanted with MOLM-13 cells; format: in vivo; conditions: day 7; scid mice, s.c. MOLM-13; Compound P 12.5 mg/kg i.v. twice a day x 5 days; Compound 9 10 mg/kg oral twice a day x 5 days
[5] = system: human renal cancer Caki-1 cells; conditions: day 10; BALB/cAJcl-nu mice, s.c. Caki-1 tumor pieces; Compound 9 25 mg/kg oral twice a day x 5 days; erlotinib 50 mg/kg oral once a day x 5 days
[6] = system: human acute myeloid leukemia MOLM-13 cells; experiment: Antitumor effect of Flt-3 inhibitor and cytarabine in mouse models transplanted with MOLM-13 cells; conditions: day 14; scid mice, s.c. MOLM-13; Compound 9 5 mg/kg oral twice a day x 14 days; cytarabine 75 mg/kg i.v. once a day x 5 days
[7] = system: human pancreatic cancer MIA-Paca-2 cells; experiment: Antitumor effect of Flt-3 inhibitor and gemcitabine in mouse models transplanted with MIA-Paca-2 cells; format: in vivo; conditions: day 24; scid mice, s.c. MIA-PaCa-2; Compound 9 25 mg/kg oral twice a day x 5 days; gemcitabine 60 mg/kg i.v. days 0, 3, 7, 10
Experimental: [formula] […] A. […] B. […] C. Gemcitabine alone group: 60 mg/kg (once a day/days zero, 3, 7, and 10 after the start of administration) D.

[8] = system: human pancreatic cancer MIA-Paca-2 cells; experiment: Antitumor effect of Flt-3 inhibitor and cetuximab in mouse models transplanted with MIA-Paca-2 cells; format: in vivo; conditions: day 24; scid mice, s.c. MIA-PaCa-2; Compound 9 50 mg/kg oral twice a day x 5 days; cetuximab 2.5 mg/head i.v. days 0, 3, 6, 9, 12
[9] = system: human colon cancer Colo205 cells; experiment: Antitumor effect of Flt-3 inhibitor and irinotecan in mouse models transplanted with Colo205 cells; format: in vivo; conditions: day 11; BALB/cAJcl-nu mice, s.c. Colo205; Compound 9 20 mg/kg oral twice a day x 5 days; irinotecan 67 mg/kg i.v. days 0 and 3
Experimental: [formula] […] Irinotecan was suspended in physiological saline at a concentration of 6.7 mg/mL. […] A. […] B. […] C. Irinotecan alone group: 67 mg/kg (once a day/days zero and 3 after the start of administration) D.

Q: For CCN(CC)CCNC(=O)c1c(C)[nH]c(/C=C2\C(=O)Nc3ccc(F)cc32)c1C [Sunitinib, reference compound], which “T/C (V/V0 of group divided by V/V0 of negative control group)” value [1] is on record?
A: 0.62

Q: With O=c1[nH]cc(F)c(=O)[nH]1 [Compound 5-FU, 5-fluorouracil, reference compound] as the compound, how does the “T/C (V/V0 of group divided by V/V0 of negative control group)” value [2] read?
A: 0.81

Q: How did the “T/C (V/V0 of group divided by V/V0 of negative control group)” value [3] turn out when COc1cccc2c1C(=O)c1c(O)c3c(c(O)c1C2=O)C[C@@](O)(C(C)=O)C[C@@H]3O[C@H]1C[C@H](N)[C@H](O)[C@H](C)O1 [Daunorubicin, reference compound] was run?
A: 0.61

Q: CCc1c(O)cc(O)c(C(=O)c2ccc(OCCN3CCOCC3)c(OC)c2)c1CC(=O)N(CCOC)CCOC [Compound P, 2-{2-ethyl-3,5-dihydroxy-6-[3-methoxy-4-(2-morpholinoethoxy)benzoyl]pheny1]-N,N-bis(2-methoxyethyl)acetamide, reference compound] was tested. Which “T/C (V/V0 of group divided by V/V0 of negative control group)” value [4] did it give?
A: 0.53

Q: Which “T/C (V/V0 of group divided by V/V0 of negative control group)” value [5] does the source give for C#Cc1cccc(Nc2ncnc3cc(OCCOC)c(OCCOC)cc23)c1 [Erlotinib, reference compound] here?
A: 0.89

Q: Which “T/C (V/V0 of group divided by V/V0 of negative control group)” value [6] does the source give for Nc1ccn([C@@H]2O[C@H](CO)[C@@H](O)[C@@H]2O)c(=O)n1 [Cytarabine, reference compound] here?
A: 0.62

Q: With O=C(c1ccc(/C=C/c2n[nH]c3ccccc23)cc1)N1CCNCC1 [Compound 9] as the compound, how does the “T/C (V/V0 of group divided by V/V0 of negative control group)” value [6] read?
A: 0.29

Q: And the “T/C (V/V0 of group divided by V/V0 of negative control group)” value [1]?
A: 0.50

Q: What about the “T/C (V/V0 of group divided by V/V0 of negative control group)” value [2] of the same compound?
A: 0.68

Q: What about the “T/C (V/V0 of group divided by V/V0 of negative control group)” value [7] of the same compound?
A: 0.84

Q: And the “T/C (V/V0 of group divided by V/V0 of negative control group)” value [5]?
A: 0.71

Q: And the “T/C (V/V0 of group divided by V/V0 of negative control group)” value [4]?
A: 0.29

Q: What about the “T/C (V/V0 of group divided by V/V0 of negative control group)” value [8] of the same compound?
A: 0.59

Q: What about the “T/C (V/V0 of group divided by V/V0 of negative control group)” value [9] of the same compound?
A: 0.75

Q: What about the “T/C (V/V0 of group divided by V/V0 of negative control group)” value [3] of the same compound?
A: 0.42

Q: Which “T/C (V/V0 of group divided by V/V0 of negative control group)” value [7] does the source give for Nc1ccn([C@@H]2O[C@H](CO)[C@@H](O)C2(F)F)c(=O)n1 [Gemcitabine, reference compound] here?
A: 0.57

Q: How did the “T/C (V/V0 of group divided by V/V0 of negative control group)” value [9] turn out when CCc1c2c(nc3ccc(OC(=O)N4CCC(N5CCCCC5)CC4)cc13)-c1cc3c(c(=O)n1C2)COC(=O)[C@]3(O)CC [Irinotecan, reference compound] was run?
A: 0.65

Reference: patent publication US20100104567A1, “PHARMACEUTICAL COMPOSITION” (KYOWA HAKKO KIRIN CO., LTD., priority 2007, published 2010)
